Test results as given in patent publication US4880941A, “Trittum labelled compound, its preparation and its use in the determination of the affinity of retinoids for their cellular receptor” (priority 1986, dated 1989).

Columns and labels:
[1] = target: T1, cRABP (cellular Retinoic Acid-Binding Protein) (Rattus norvegicus, UniProt P62966); assay: Saturation test: fixation of ligand on soluble cRABP of rat testicle homogenate; parameters: a homogenate of rat testicles (organ rich in cRABP); from tissue; host or cells: rat testicles (homogenate), inferred from the saturation test; settings: for nonspecific fixation (% of the total fixation): in the presence of a large excess (1 μM) of retinoic acid, ligand up to 50 nM
Method: The total fixation (nonspecific +specific) (curva a), is obtained by incubation of increasing concentrations (up to a maximum of 50 nM) of the compound of the present invention with a constant quantity (0.3 ml) of a homogenate of rat testicles (organ rich in cRABP). […] An incubation time for 2 hours is necessary for the establishment of equilibrium conditions.
Once equilibrium is reached, the cRABP-tritiated ligand complex is separated from the nonlinked ligand by filtration on an exclusion gel Sephadex G25 column (Bio-Rad econo columns, 0.5×20 cm): the complex is eluted (elution peak at 2.5 ml), while the nonlinked ligand is retained in total on the column. A total separation is thus effected between the linked and nonlinked product. The eluation is made directly in the scintillation tubes and the radioactivity is measured by counting.
On FIG. 1, there is represented, on the abscissa, the initial concentrations of the ligand being studied, and on the ordinate, the concentrations at equilibrium of the ligand-receptor complex.
The difference between curves a (total fixation) and c (nonspecific fixation) gives the curve of specific fixation, curve b. The analysis of this curve provides the dissociation constant at equilibrium, (Kd), which is the concentration of product necessary for 50% saturation of the soluble receptor. This constant is a measure of the affinity of the ligand for its receptor, Kd being inversely proportional to affinity, (the weaker Kd is, the greater is the affinity).

[2] = target: T1, cRABP (cellular Retinoic Acid-Binding Protein); assay: Competition test of cold ligand against radioactive ligand for fixation on cRABP
Method: These competition tests are carried out in the following manner: a fixed amount of the radioactive ligand (corresponding essentially to the half-saturation of the fixed amount of receptor which will be employed), is mixed with increasing quantities of cold ligand (nonradioactive). The receptor is then added and there is determined the amount of radioactive ligand fixed at equilibrium (in % of initial fixation in the absence of cold ligand, for the amount of receptor considered).
Starting from the competition curves of FIGS. 2 to 7, there is determined in each case the IC50 (concentration of cold ligand reducing the attachment of 50% of the tritiated ligand). This IC50 value permits the calculation in each case of the dissociation constant at equilibrium (Kd) for the cold ligand.

T1 sequence (P62966 whole entry): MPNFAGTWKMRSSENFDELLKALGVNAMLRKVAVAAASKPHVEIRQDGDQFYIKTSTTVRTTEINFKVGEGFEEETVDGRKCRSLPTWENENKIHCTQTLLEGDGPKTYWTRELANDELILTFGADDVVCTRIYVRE

Row | SMILES | nonspecific fixation (% of the total fixation) [1] | Kd [2] | also measured
1 | CC1=C(/C=C/C(C)=C/C=C/C(C)=C/C(=O)O)C(C)(C)CCC1 [retinoic acid] | approximately 25% | – | –
2 | [3H]c1cc2c(cc1-c1cc3ccc(C(=O)O)cc3s1)C(C)(C)CCC2(C)C [Example 1, 2-(3-^3 H-5,6,7,8-tetrahydro-5,5,8,8-tetramethyl-2-naphthyl)-6-benzo [b] thiophene carboxylic acid] | less than 10% | – | nonspecific fixation (character) ([1]; in the concentration range employed (up to 50 nM)): linear and nonsaturable; specific fixation (character) ([1]; saturation test, rat testicle homogenate): saturable and reversible; Kd ([1]; saturation test, rat testicle homogenate, 2 hours incubation, nonlinear regression (Clark equation), read-out: Kd (dissociation constant at equilibrium)): 2.7 ± 0.5 nM
3 | CC1(C)CCC(C)(C)c2cc(-c3cc4ccc(C(=O)O)cc4s3)ccc21 [compound A, 2-(5,6,7,8-tetrahydro-5,5,8,8-tetramethyl-2-naphthyl)-6-benzo [b] thiophene carboxylic acid] | – | 6 nM | –
4 | C/C(=C\c1ccc(C(=O)O)cc1)c1ccc2c(c1)C(C)(C)CCC2(C)C [compound B] | – | 16 nM | Kd ([2]; Kd of the cold ligand, radioactive ligand: tritiated retinoic acid, calculated from IC50 of competition curve): 20 nM
